Source: patent US7579323B1, “Hemiasterlin analogs” (The University of British Columbia, priority 1997, dated 2009)
Counter-ions that a name gives are not always drawn. Like-named read-outs stand apart in the source and are kept apart here.

Experiments:
[1] = tested on: p53+ and p53− variants of human breast cancer MCF-7 cells and A549 tumor cells; test: Assay for cytotoxicity (J. Immunol. Methods 65:55-63), SPA-110 compared to hemiasterlin; type: cell-based; conditions: MCF-7 p53+ and p53− and A549 cells; FIGS. 5A and 5B; naturally occurring compound = hemiasterlin
Procedure: Cytotoxicity of SPA-110 compared to hemiasterlin as against p53+ and p53− variants of human breast cancer MCF-7 cells and A549 tumor cells was determined according to the methods described in J. Immunol. Methods 65:55-63 (1983).

[2] = tested on: MCF-7 mp53− cells; test: Assay for antimitotic activity, ELISA with mitosis-specific antibody TG-3; type: cell-based, human; conditions: 20 hours incubation, FIG. 6, naturally occurring compound = hemiasterlin
Procedure: Antimitotic activity is detected by enzyme-linked immunosorbent assay using a mitosis-specific antibody, TG-3 (from Albert Einstein College of Yeshiva University, Bronx, N.Y.; and see: PCT application published Jul. 4, 1996 under WO96/20218).
MCF-7 mp 53^− cells (expressing a dominant-negative p53 mutation as described in S. Fan, et al. […] Cancer Research 55:1649-1654) were cultured as monolayers in DMEM supplemented with 10% fetal bovine serum, 2 mM L-glutamine, 50 units/ml penicillin, 50 μg/ml streptomycin, 1 mM sodium pyruvate, MEM non-essential amino acids, 1 μg/ml bovine insulin, 1 μg/ml hydrocortisone, 1 ng/ml human epidermal growth factor, and 1 ng/ml β-estradiol at 37° C. in humidified 5% CO2. The cells were seeded at 10,000 cells per well of 96-well polystyrene tissue culture plates (Falcon) in a volume of 200 μl cell culture medium. The cells were allowed to grow for 24 hours and compounds were added at about 1 μg/ml or 10 μg/ml (from 1000-fold stocks in dimethylsulfoxide) and the cells were incubated for 20 hours. Nocodazole (Sigma) served as a positive control. […] 100 μl of 120 mM Na2HPO41 100 mM citric acid, pH 4.0 containing 0.5 mg/ml 2,2′-azino-bis(3-ethylbenzthiazoline-6-sulfonic acid) and 0.01% hydrogen peroxide was added for 1 hour at room temperature and the plates were read at 405 nm using a BioTek plate reader.

[3] = tested on: human colon carcinoma LOVO; type: in vivo, Athymic nu/nu female mice; conditions: for % T/C day 7 / % T/C day 14 / % T/C day 21 / % T/C day 28: LOVO xenograft, SPA-110 intravenously, Vincristine intraperitoneally, p≦0.05; for % T/C day 7: day 7 post staging; for % T/C day 14: day 14 post staging; for % T/C day 21: day 21 post staging; for % T/C day 28: day 28 post staging
Procedure: The compound SPA-110 was evaluated in vivo using standard pharmacological test procedures which measure its ability to inhibit the growth of human tumor xenografts. The human colon carcinoma LOVO (American Type Culture Collection, Rockville, Md. #CCL-229) was grown in tissue culture in RPMI supplemented with 10% FBS. Athymic nu/nu female mice (Charles River, Wilmington, Mass.) were injected sub-cutaneously in the flank area with 7.0×10^6 LOVO cells. When tumors attained a mass of between 80 and 120 mg, the mice were randomized into treatment groups (day zero). Animals were treated intravenously once a day on days 1, 5, and 9 post staging (day zero) with 1 mg/kg/dose of SPA-110 prepared in 2.5% ethanol in saline or with saline as the vehicle control. Some animals were treated intraperitonealy once a day on days 1, 5 and 9 post staging with 1 mg/kg/dose Vincristine as a positive control. Tumor mass was determined every 7 days [(length×width^2)/2] for 28 days post staging. RTG or relative tumor growth (Mean tumor mass on days 7, 14, 21 and 28 divided by the mean tumor mass on day zero) was determined for each treatment group. % T/C was calculated as RTC (treated group) % RTC (vehicle control group)×100. Statistical analysis (Student-t-test) of log relative tumor growth was used to compare treated verses control group in each experiment. A p-value (p≦0.05), which indicates a statistically significant reduction in relative tumor growth, was obtained in each case. 5 of 5 animals treated at day 28 with SPA-110 survived. 9 of 10 animals treated at day 28 with vincristine survived.

| Structure (SMILES) | Cytotoxicity compared to hemiasterlin [1] | Antimitotic activity compared to hemiasterlin [2] | Animals surviving at day 28 ([3]; LOVO xenograft mice, day 28, 1 mg/kg/dose on days 1, 5, 9) | % T/C day 7 ([3]; 1 mg/kg/dose on days 1, 5, 9) [%] | % T/C day 14 ([3]; 1 mg/kg/dose on days 1, 5, 9) [%] | % T/C day 21 ([3]; 1 mg/kg/dose on days 1, 5, 9) [%] | % T/C day 28 ([3]; 1 mg/kg/dose on days 1, 5, 9) [%] | Animals surviving at day 28 ([3]; female, athymic nu/nu, mouse, in vivo, 1 mg/kg, 28 days) |
| --- | --- | --- | --- | --- | --- | --- | --- | --- |
| CN[C@H](C(=O)NC(C(=O)N(C)C(/C=C(\C)C(=O)O)C(C)C)C(C)(C)C)C(C)(C)c1ccccc1 (stereo in doubt) [SPA-110, SPA 110-trifluoroacetate salt] | more cytotoxic in some instances than the naturally occurring compound | considerably greater antimitotic activity than the naturally occurring compound | 5 of 5 | 16 | 18 | 30 | 47 |  |
| CC[C@]1(O)C[C@H]2CN(CCc3c([nH]c4ccccc34)[C@@](C(=O)OC)(c3cc4c(cc3OC)N(C=O)[C@H]3[C@@](O)(C(=O)OC)[C@H](OC(C)=O)[C@]5(CC)C=CCN6CC[C@]43[C@@H]65)C2)C1 [Vincristine, reference compound] |  |  |  | 34 | 37 | 44 | 47 | 9 of 10 |
